Results reported in the supplement of paper PMC11061612.

What was measured:
[1] = test system: 8305C (Thyroid Gland Carcinoma); experiment: Bliss excess, mean over the matrix (fraction); higher = more synergy
In short: (§1)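 Cell lines grown in DMEM/F12 or RPMI with 10% FBS were plated in 1536-well plates and held 24 hours at 37°C, 5% CO2 before 72 hours of exposure to two-drug dose matrices, with DMSO typically at 0.2%. CellTiter-Glo 2.0 luminescence gave viability, which was converted to inhibition. Vehicle wells were set to 0 and blank wells to 1. Combination Emax is the second-highest inhibition in the matrix, and Bliss excess is the observed combination effect minus the expected EA + EB − EA·EB, where EA and EB are the single-agent effects.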

[2] = test system: CAL-51 (Breast Carcinoma); experiment: as above
In short: as §1

[3] = test system: CAL-54 (Kidney Carcinoma); experiment: as above
In short: as §1

COLO-829 (Melanoma) = experiment: as above
In short: as §1

[4] = test system: HDLM-2 (Hodgkin's Lymphoma); experiment: as above
In short: as §1

[5] = test system: Hs-633T (Other Solid Carcinomas); experiment: as above
In short: as §1

[6] = test system: KARPAS-231 (B-Cell Non-Hodgkin's Lymphoma); experiment: as above
In short: as §1

[7] = test system: KYSE-410 (Esophageal Squamous Cell Carcinoma); experiment: as above
In short: as §1

[8] = test system: LB771-HNC (Head and Neck Carcinoma); experiment: as above
In short: as §1

[9] = test system: LU-139 (Small Cell Lung Carcinoma); experiment: as above
In short: as §1

[10] = test system: RKO (Colorectal Carcinoma); experiment: as above
In short: as §1

[11] = test system: RT-112 (Bladder Carcinoma); experiment: as above
In short: as §1

[12] = test system: SUP-T1 (T-Lymphoblastic Leukemia); experiment: as above
In short: as §1

[13] = test system: UMC-11 (Other Solid Carcinomas); experiment: as above
In short: as §1

[14] = test system: LoVo (Colorectal Carcinoma); experiment: combination Emax (second highest fraction inhibited in the dose matrix, 72 h); higher = more inhibition; extreme values may be limits of the assay
In short: as §1

[15] = test system: RT-112 (Bladder Carcinoma); experiment: as above
In short: as §1

[16] = test system: SK-OV-3 (Ovarian Carcinoma); experiment: as above
In short: as §1

[17] = test system: SUP-T1 (T-Lymphoblastic Leukemia); experiment: as above
In short: as §1

[18] = test system: CAPAN-1 (Pancreatic Carcinoma); experiment: Bliss excess, mean over the matrix (fraction); higher = more synergy
In short: as §1

[19] = test system: MDA-MB-468 (Breast Carcinoma); experiment: as above
In short: as §1
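Throughout, for Bliss excess, mean over the matrix: after 72 h of two-drug dosing.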

Structure (SMILES)	Bliss excess [1]	Bliss excess [2]	Bliss excess [3]	Bliss excess (COLO-829 (Melanoma))	Bliss excess [4]	Bliss excess [5]	Bliss excess [6]	Bliss excess [7]	Bliss excess [8]	Bliss excess [9]	Bliss excess [10]	Bliss excess [11]	Bliss excess [12]	Bliss excess [13]	combination Emax [14]	combination Emax [15]	combination Emax [16]	combination Emax [17]	Bliss excess [18]	Bliss excess [19]
C=CCn1c(=O)c2cnc(Nc3ccc(N4CCN(C)CC4)cc3)nc2n1-c1cccc(C(C)(C)O)n1 [AZD1775] + C1CN(CCC1(C(=O)N[C@@H](CCO)C2=CC=C(C=C2)Cl)N)C3=NC=NC4=C3C=CN4 [Capivasertib] (first compound max 3 µM, partner max 3 µM)	0.0069	-0.0188	-0.0622	0.0335	-0.0503	0.0389	0.0311	-0.0015	-0.0581	0.0096	0.0179	-0.0348	-0.0212	0.0101	0.937	0.836	0.581	0.916		
COc1nnc2ccc(N3CCC(c4ccc(OCCN5CCN(C)C(=O)[C@H]5C)cc4)CC3)nn12 [AZD5153] + Cn1cnc2c(F)c(Nc3ccc(Br)cc3Cl)c(C(=O)NOCCO)cc21 [Selumetinib] (first compound max 1 µM, 7x7, partner max 10 µM)	-0.0323	0.0099	-0.0165	-0.0086	-0.0407	0.0302	-0.0464	-0.0784	-0.0895	0.0169	0.0263	0.0423	-0.052	-0.031	0.862	0.436	0.404	0.718	-0.0226	
C[C@@H](c1ccc2nccn2c1)n1nnc2ncc(-c3cnn(C)c3)nc21 [Savolitinib] + CC1(C)CCC(CN2CCN(c3ccc(C(=O)NS(=O)(=O)c4ccc(NCC5CCOCC5)c([N+](=O)[O-])c4)c(Oc4cnc5[nH]ccc5c4)c3)CC2)=C(c2ccc(Cl)cc2)C1 [Venetoclax] (first compound max 1 µM, 7x7, partner max 1 µM)	-0.115	-0.0522	-0.102	-0.0411	-0.0465	-0.0383	-0.0344	-0.0726	-0.0912	-0.0256	-0.05	-0.046	-0.0456	-0.0303	0.195	0.156	0.121	0.131	-0.0613	
COc1nnc2ccc(N3CCC(c4ccc(OCCN5CCN(C)C(=O)[C@H]5C)cc4)CC3)nn12 [AZD5153] + CCN(CCO)CCCOc1ccc2c(Nc3cc(CC(=O)Nc4cccc(F)c4)[nH]n3)ncnc2c1 [AZD2811] (first compound max 1 µM, 7x7, partner max 1 µM)	-0.0629	-0.0038	-0.0225	-0.0173	0.0003	-0.0285	-0.203	-0.0182	-0.0006	0.0203	-0.0096	-0.0595	0.0027	-0.123	0.627	0.357	0.376	0.786	-0.08	
C=CCn1c(=O)c2cnc(Nc3ccc(N4CCN(C)CC4)cc3)nc2n1-c1cccc(C(C)(C)O)n1 [AZD1775] + CCc1c2c(nc3ccc(O)cc13)-c1cc3c(c(=O)n1C2)COC(=O)[C@]3(O)CC [SN-38] (first compound max 1 µM, partner max 0.3 µM)	-0.0536		-0.0327		-0.0928	-0.0522				-0.0526	-0.0377	0.109	-0.105		0.818	0.985	0.525	0.84	-0.0635	-0.0811
COc1nnc2ccc(N3CCC(c4ccc(OCCN5CCN(C)C(=O)[C@H]5C)cc4)CC3)nn12 [AZD5153] + Cc1c2c(nn1C)CSCc1cc(n(C)n1)CSc1cc(c3ccccc3c1)OCCCc1c(C(=O)O)n(C)c3c-2c(Cl)ccc13 [AZD5991] (first compound max 1 µM, 7x7, partner max 1 µM)	-0.0922	0.0291	-0.0396	-0.0168	-0.0401	0.0227	-0.128	0.0001	0.0475	-0.0069	-0.0293	0.0039	-0.021	0.0518	0.545	0.922	0.413	0.726	-0.0534	
Cn1cnc2c(F)c(Nc3ccc(Br)cc3Cl)c(C(=O)NOCCO)cc21 [Selumetinib] + CCN(CCO)CCCOc1ccc2c(Nc3cc(CC(=O)Nc4cccc(F)c4)[nH]n3)ncnc2c1 [AZD2811] (first compound max 10 µM, 7x7, partner max 1 µM)	-0.0075	0.0356	-0.0129	-0.0341	-0.0267	0.0395	-0.0043	0.0033	-0.0486	0.0062	0.088	-0.0741	0.0328	-0.0446	0.445	0.456	0.226	0.413	-0.0209	
COc1nnc2ccc(N3CCC(c4ccc(OCCN5CCN(C)C(=O)[C@H]5C)cc4)CC3)nn12 [AZD5153] + C[C@@H]1COCCN1C2=NC(=NC(=C2)C3(CC3)[S@](=N)(=O)C)C4=C5C=CNC5=NC=C4 [AZD6738] (first compound max 1 µM, 7x7, partner max 10 µM)	-0.0088	0.0189	-0.0043	-0.0138	-0.0567	0.0037	-0.0609	0.041	0.0467	0.01	-0.0442	0.0298	-0.0445	0.0169	0.814	0.737	0.481	0.844	-0.022	
Cn1cnc2c(F)c(Nc3ccc(Br)cc3Cl)c(C(=O)NOCCO)cc21 [Selumetinib] + C=CCn1c(=O)c2cnc(Nc3ccc(N4CCN(C)CC4)cc3)nc2n1-c1cccc(C(C)(C)O)n1 [AZD1775] (first compound max 10 µM, partner max 1 µM)	-0.0383	-0.0175	-0.076	-0.0734	-0.092	-0.0094	-0.0167	0.0543	-0.0937	0.0238	-0.0202	-0.0352	-0.0663	0.0137	0.723	0.61	0.365	0.809	-0.0399	
Cn1cnc2c(F)c(Nc3ccc(Br)cc3Cl)c(C(=O)NOCCO)cc21 [Selumetinib] + C[C@@H]1COCCN1C2=NC(=NC(=C2)C3(CC3)[S@](=N)(=O)C)C4=C5C=CNC5=NC=C4 [AZD6738] (first compound max 10 µM, 7x7, partner max 10 µM)	-0.0238	0.0209	-0.0083	0.102	-0.0422	-0.0012	0.0287	0.0274	-0.0532	-0.0259	-0.0041	-0.0088	-0.0747	0.0001	0.738	0.555	0.32	0.713	0.0147	
Cc1nc(-c2cn3c(n2)-c2ccc(-c4cnn(C(C)(C)C(N)=O)c4)cc2OCC3)n(C(C)C)n1 [Taselisib] + O=C(Nc1ccc2[nH]nc(-c3ccncc3)c2c1)[C@@H]1CCN(CC(=O)N2CCN(c3ccc(-c4ncccn4)cc3)CC2)C1 [SCH772984] (first compound max 10 µM, 7x7, partner max 5 µM)	0.0199		-0.0024		0.0529	0.0891				-0.0066	0.146	0.108	0.0502		0.738	0.802	0.69	0.609	0.0449	-0.003
Cn1cnc2c(F)c(Nc3ccc(Br)cc3Cl)c(C(=O)NOCCO)cc21 [Selumetinib] + CC(C)n1c(=O)n(C)c2cnc3cc(F)c(-c4ccc(OCCCN5CCCCC5)nc4)cc3c21 [AZD1390] (first compound max 10 µM, 7x7, partner max 0.3 µM)	-0.057	-0.0271	-0.0377	-0.0578	-0.0509	0.0303	-0.0101	-0.0327	-0.067	-0.0259	-0.0273	-0.0217	-0.0481	-0.0422	0.425	0.353	0.238	0.0785	-0.0537	
COc1nnc2ccc(N3CCC(c4ccc(OCCN5CCN(C)C(=O)[C@H]5C)cc4)CC3)nn12 [AZD5153] + C=CCn1c(=O)c2cnc(Nc3ccc(N4CCN(C)CC4)cc3)nc2n1-c1cccc(C(C)(C)O)n1 [AZD1775] (first compound max 1 µM, partner max 1 µM)	-0.077	-0.0111	-0.0366	-0.0178	-0.125	-0.0516	-0.112	-0.0516	-0.0069	-0.0474	-0.0866	-0.0342	-0.068	0.0058	0.656	0.661	0.506	0.821	-0.0397	
CS(=O)(=O)CCNCc1ccc(-c2ccc3ncnc(Nc4ccc(OCc5cccc(F)c5)c(Cl)c4)c3c2)o1 [Lapatinib] + Cn1cnc2c(F)c(Nc3ccc(Br)cc3Cl)c(C(=O)NOCCO)cc21 [Selumetinib] (first compound max 10 µM, 7x7, partner max 10 µM)	-0.0297		0.0022		0.0023	0.026				-0.0161	0.0413	0.0134	-0.0679		0.742	0.486	0.347	0.53	-0.0664	-0.0835
CS(=O)(=O)CCNCc1ccc(-c2ccc3ncnc(Nc4ccc(OCc5cccc(F)c5)c(Cl)c4)c3c2)o1 [Lapatinib] + NC1(c2ccc(-c3nc4ccn5c(=O)[nH]nc5c4cc3-c3ccccc3)cc2)CCC1 [MK-2206] (first compound max 10 µM, 7x7, partner max 10 µM)	0.118		-0.0009	-0.0245	-0.0168	0.0256				0.0119	-0.0002	0.0746	-0.0215		0.713	0.917	0.658	0.912	-0.016	0.0008
